In brackets after ≈: the same amount, converted by molar mass.
The molecules below were run on Klebsiella pneumoniae (assay: Antibacterial activity against extended-spectrum beta-lactamase producin Klebsiella pneumoniae 12-4 after 18 to 24 hrs by standard twofold serial dilution method).
Type: functional

Compound | MIC
CO/N=C1/CN(c2nc3c(cc2F)c(=O)c(C(=O)O)cn3[C@@H]2C[C@@H]2F)CC1CN (some centres not stated) | 0.5 µg/mL (≈ 1.23 µM)

These molecules were tested on Pseudomonas aeruginosa (assay: Antibacterial activity against Pseudomonas aeruginosa 12-12 after 18 to 24 hrs by standard twofold serial dilution method).
Type: functional

Compound | MIC
CO/N=C1/CN(c2nc3c(cc2F)c(=O)c(C(=O)O)cn3[C@@H]2C[C@@H]2F)CC1CN (some centres not stated) | 0.5 µg/mL (≈ 1.23 µM)

These molecules were tested on Klebsiella pneumoniae (assay: Antibacterial activity against extended-spectrum beta-lactamase producin Klebsiella pneumoniae 12-7 after 18 to 24 hrs by standard twofold serial dilution method).
Type: functional

Compound | MIC
CO/N=C1/CN(c2nc3c(cc2F)c(=O)c(C(=O)O)cn3[C@@H]2C[C@@H]2F)CC1CN (some centres not stated) | 2 µg/mL (≈ 4.91 µM)

Each molecule was assayed on Staphylococcus aureus (assay: Antibacterial activity against methicillin-resistant Staphylococcus aureus 12-4 after 18 to 24 hrs by standard twofold serial dilution method).
Type: functional

Compound | MIC
CO/N=C1/CN(c2nc3c(cc2F)c(=O)c(C(=O)O)cn3[C@@H]2C[C@@H]2F)CC1CN (some centres not stated) | 32 µg/mL (≈ 78.6 µM)

The molecules below were run on Mycobacterium tuberculosis (assay: Antimycobacterial activity against Mycobacterium tuberculosis H37Rv ATCC 27294 by MABA method).
Type: functional

Compound | MIC
CO/N=C1/CN(c2nc3c(cc2F)c(=O)c(C(=O)O)cn3[C@@H]2C[C@@H]2F)CC1CN (some centres not stated) | 0.5 µg/mL (≈ 1.23 µM)

The molecules below were run on Klebsiella pneumoniae (assay: Antibacterial activity against Klebsiella pneumoniae 12-1 after 18 to 24 hrs by standard twofold serial dilution method).
Type: functional

Compound | MIC
CO/N=C1/CN(c2nc3c(cc2F)c(=O)c(C(=O)O)cn3[C@@H]2C[C@@H]2F)CC1CN (some centres not stated) | 0.25 µg/mL (≈ 0.614 µM)

The molecules below were run on Klebsiella pneumoniae (assay: Antibacterial activity against extended-spectrum beta-lactamase producin Klebsiella pneumoniae 12-3 after 18 to 24 hrs by standard twofold serial dilution method).
Type: functional

Compound | MIC
CO/N=C1/CN(c2nc3c(cc2F)c(=O)c(C(=O)O)cn3[C@@H]2C[C@@H]2F)CC1CN (some centres not stated) | 32 µg/mL (≈ 78.6 µM)

The molecules below were run on Escherichia coli (assay: Antibacterial activity against extended-spectrum beta-lactamase producing Escherichia coli 12-3 after 18 to 24 hrs by standard twofold serial dilution method).
Type: functional

Compound | MIC
CO/N=C1/CN(c2nc3c(cc2F)c(=O)c(C(=O)O)cn3[C@@H]2C[C@@H]2F)CC1CN (some centres not stated) | 32 µg/mL (≈ 78.6 µM)

What follows are molecules tested on Staphylococcus aureus (assay: Antibacterial activity against methicillin-sensitive Staphylococcus aureus 12-1 after 18 to 24 hrs by standard twofold serial dilution method).
Type: functional

Compound | MIC
CO/N=C1/CN(c2nc3c(cc2F)c(=O)c(C(=O)O)cn3[C@@H]2C[C@@H]2F)CC1CN (some centres not stated) | 0.125 µg/mL (≈ 0.307 µM)

These molecules were tested on Staphylococcus aureus (assay: Antibacterial activity against methicillin-resistant Staphylococcus aureus 12-5 after 18 to 24 hrs by standard twofold serial dilution method).
Type: functional

Compound | MIC
CO/N=C1/CN(c2nc3c(cc2F)c(=O)c(C(=O)O)cn3[C@@H]2C[C@@H]2F)CC1CN (some centres not stated) | 16 µg/mL (≈ 39.3 µM)

The molecules below were run on Staphylococcus aureus (assay: Antibacterial activity against methicillin-sensitive Staphylococcus aureus 12-4 after 18 to 24 hrs by standard twofold serial dilution method).
Type: functional

Compound | MIC
CO/N=C1/CN(c2nc3c(cc2F)c(=O)c(C(=O)O)cn3[C@@H]2C[C@@H]2F)CC1CN (some centres not stated) | 0.06 µg/mL (≈ 0.147 µM)

What follows are molecules tested on Escherichia coli (assay: Antibacterial activity against Escherichia coli 12-1 after 18 to 24 hrs by standard twofold serial dilution method).
Type: functional

Compound | MIC
CO/N=C1/CN(c2nc3c(cc2F)c(=O)c(C(=O)O)cn3[C@@H]2C[C@@H]2F)CC1CN (some centres not stated) | 0.5 µg/mL (≈ 1.23 µM)

What follows are molecules tested on Staphylococcus epidermidis (assay: Antibacterial activity against methicillin-sensitive Staphylococcus epidermidis 12-6 after 18 to 24 hrs by standard twofold serial dilution method).
Type: functional

Compound | MIC
CO/N=C1/CN(c2nc3c(cc2F)c(=O)c(C(=O)O)cn3[C@@H]2C[C@@H]2F)CC1CN (some centres not stated) | 0.125 µg/mL (≈ 0.307 µM)

What follows are molecules tested on Staphylococcus aureus (assay: Antibacterial activity against methicillin-sensitive Staphylococcus aureus 12-5 after 18 to 24 hrs by standard twofold serial dilution method).
Type: functional

Compound | MIC
CO/N=C1/CN(c2nc3c(cc2F)c(=O)c(C(=O)O)cn3[C@@H]2C[C@@H]2F)CC1CN (some centres not stated) | 0.125 µg/mL (≈ 0.307 µM)

Each molecule was assayed on Staphylococcus epidermidis (assay: Antibacterial activity against methicillin-sensitive Staphylococcus epidermidis 12-1 after 18 to 24 hrs by standard twofold serial dilution method).
Type: functional

Compound | MIC
CO/N=C1/CN(c2nc3c(cc2F)c(=O)c(C(=O)O)cn3[C@@H]2C[C@@H]2F)CC1CN (some centres not stated) | 0.125 µg/mL (≈ 0.307 µM)

The molecules below were run on Klebsiella pneumoniae (assay: Antibacterial activity against Klebsiella pneumoniae 12-4 after 18 to 24 hrs by standard twofold serial dilution method).
Type: functional

Compound | MIC
CO/N=C1/CN(c2nc3c(cc2F)c(=O)c(C(=O)O)cn3[C@@H]2C[C@@H]2F)CC1CN (some centres not stated) | 0.25 µg/mL (≈ 0.614 µM)

These molecules were tested on Klebsiella pneumoniae (assay: Antibacterial activity against Klebsiella pneumoniae 12-2 after 18 to 24 hrs by standard twofold serial dilution method).
Type: functional

Compound | MIC
CO/N=C1/CN(c2nc3c(cc2F)c(=O)c(C(=O)O)cn3[C@@H]2C[C@@H]2F)CC1CN (some centres not stated) | 0.25 µg/mL (≈ 0.614 µM)

These molecules were tested on Pseudomonas aeruginosa (assay: Antibacterial activity against Pseudomonas aeruginosa 12-14 after 18 to 24 hrs by standard twofold serial dilution method).
Type: functional

Compound | MIC
CO/N=C1/CN(c2nc3c(cc2F)c(=O)c(C(=O)O)cn3[C@@H]2C[C@@H]2F)CC1CN (some centres not stated) | 8 µg/mL (≈ 19.6 µM)

These molecules were tested on Staphylococcus epidermidis (assay: Antibacterial activity against methicillin-sensitive Staphylococcus epidermidis 12-8 after 18 to 24 hrs by standard twofold serial dilution method).
Type: functional

Compound | MIC
CO/N=C1/CN(c2nc3c(cc2F)c(=O)c(C(=O)O)cn3[C@@H]2C[C@@H]2F)CC1CN (some centres not stated) | 1 µg/mL (≈ 2.45 µM)

These molecules were tested on Staphylococcus epidermidis (assay: Antibacterial activity against methicillin-resistant Staphylococcus epidermidis 12-6 after 18 to 24 hrs by standard twofold serial dilution method).
Type: functional

Compound | MIC
CO/N=C1/CN(c2nc3c(cc2F)c(=O)c(C(=O)O)cn3[C@@H]2C[C@@H]2F)CC1CN (some centres not stated) | 4 µg/mL (≈ 9.82 µM)

The molecules below were run on Escherichia coli (assay: Antibacterial activity against extended-spectrum beta-lactamase producing Escherichia coli 12-14 after 18 to 24 hrs by standard twofold serial dilution method).
Type: functional

Compound | MIC
CO/N=C1/CN(c2nc3c(cc2F)c(=O)c(C(=O)O)cn3[C@@H]2C[C@@H]2F)CC1CN (some centres not stated) | 64 µg/mL (≈ 157 µM)

These molecules were tested on Staphylococcus epidermidis (assay: Antibacterial activity against methicillin-sensitive Staphylococcus epidermidis 12-3 after 18 to 24 hrs by standard twofold serial dilution method).
Type: functional

Compound | MIC
CO/N=C1/CN(c2nc3c(cc2F)c(=O)c(C(=O)O)cn3[C@@H]2C[C@@H]2F)CC1CN (some centres not stated) | 0.5 µg/mL (≈ 1.23 µM)

These molecules were tested on Staphylococcus aureus (assay: Antibacterial activity against methicillin-resistant Staphylococcus aureus 12-2 after 18 to 24 hrs by standard twofold serial dilution method).
Type: functional

Compound | MIC
CO/N=C1/CN(c2nc3c(cc2F)c(=O)c(C(=O)O)cn3[C@@H]2C[C@@H]2F)CC1CN (some centres not stated) | 16 µg/mL (≈ 39.3 µM)

The molecules below were run on Escherichia coli (assay: Antibacterial activity against Escherichia coli ATCC 25922 after 18 to 24 hrs by standard twofold serial dilution method).
Type: functional

Compound | MIC
CO/N=C1/CN(c2nc3c(cc2F)c(=O)c(C(=O)O)cn3[C@@H]2C[C@@H]2F)CC1CN (some centres not stated) | 0.06 µg/mL (≈ 0.147 µM)

The molecules below were run on Escherichia coli (assay: Antibacterial activity against extended-spectrum beta-lactamase producing Escherichia coli 12-15 after 18 to 24 hrs by standard twofold serial dilution method).
Type: functional

Compound | MIC
CO/N=C1/CN(c2nc3c(cc2F)c(=O)c(C(=O)O)cn3[C@@H]2C[C@@H]2F)CC1CN (some centres not stated) | > 128 µg/mL

The molecules below were run on Staphylococcus aureus (assay: Antibacterial activity against Staphylococcus aureus ATCC 25923 after 18 to 24 hrs by standard twofold serial dilution method).
Type: functional

Compound | MIC
CO/N=C1/CN(c2nc3c(cc2F)c(=O)c(C(=O)O)cn3[C@@H]2C[C@@H]2F)CC1CN (some centres not stated) | 0.015 µg/mL (≈ 0.0368 µM)

These molecules were tested on Streptococcus pneumoniae (assay: Antibacterial activity against Streptococcus pneumoniae 12-18 after 18 to 24 hrs by standard twofold serial dilution method).
Type: functional

Compound | MIC
CO/N=C1/CN(c2nc3c(cc2F)c(=O)c(C(=O)O)cn3[C@@H]2C[C@@H]2F)CC1CN (some centres not stated) | 0.25 µg/mL (≈ 0.614 µM)

What follows are molecules tested on Klebsiella pneumoniae (assay: Antibacterial activity against extended-spectrum beta-lactamase producin Klebsiella pneumoniae 12-14 after 18 to 24 hrs by standard twofold serial dilution method).
Type: functional

Compound | MIC
CO/N=C1/CN(c2nc3c(cc2F)c(=O)c(C(=O)O)cn3[C@@H]2C[C@@H]2F)CC1CN (some centres not stated) | 64 µg/mL (≈ 157 µM)

Each molecule was assayed on Escherichia coli (assay: Antibacterial activity against extended-spectrum beta-lactamase producing Escherichia coli 12-2 after 18 to 24 hrs by standard twofold serial dilution method).
Type: functional

Compound | MIC
CO/N=C1/CN(c2nc3c(cc2F)c(=O)c(C(=O)O)cn3[C@@H]2C[C@@H]2F)CC1CN (some centres not stated) | 128 µg/mL (≈ 314 µM)

What follows are molecules tested on Staphylococcus aureus (assay: Antibacterial activity against methicillin-sensitive Staphylococcus aureus 12-2 after 18 to 24 hrs by standard twofold serial dilution method).
Type: functional

Compound | MIC
CO/N=C1/CN(c2nc3c(cc2F)c(=O)c(C(=O)O)cn3[C@@H]2C[C@@H]2F)CC1CN (some centres not stated) | 0.125 µg/mL (≈ 0.307 µM)

Each molecule was assayed on Staphylococcus epidermidis (assay: Antibacterial activity against methicillin-resistant Staphylococcus epidermidis 12-1 after 18 to 24 hrs by standard twofold serial dilution method).
Type: functional

Compound | MIC
CO/N=C1/CN(c2nc3c(cc2F)c(=O)c(C(=O)O)cn3[C@@H]2C[C@@H]2F)CC1CN (some centres not stated) | 4 µg/mL (≈ 9.82 µM)

The molecules below were run on Streptococcus pneumoniae (assay: Antibacterial activity against Streptococcus pneumoniae ATCC 49619 after 18 to 24 hrs by standard twofold serial dilution method).
Type: functional

Compound | MIC
CO/N=C1/CN(c2nc3c(cc2F)c(=O)c(C(=O)O)cn3[C@@H]2C[C@@H]2F)CC1CN (some centres not stated) | 0.125 µg/mL (≈ 0.307 µM)

From ChEMBL document CHEMBL3352227, “Synthesis, antimycobacterial and antibacterial evaluation of l-[(1R, 2S)-2-fluorocyclopropyl]fluoroquinolone derivatives containing an oxime functional moiety” (Eur J Med Chem, 2014)
